Here are results for one compound from patent publication US20030191188A1, “Method for treating migraine symptoms with ibuprofen and salts thereof” (priority 1999, published 2003).

Assay [1] has as its system Subjects suffering from photophobia due to a migraine. In words: Treatment of photophobia due to a migraine, placebo-controlled subject study. The assay is classed as in vivo. To be noted: 200 or 400 milligrams of ibuprofen vs placebo; approximately 650 subjects; at time of two hours or longer. The source says:
FIG. 1 depicts the percentage of subjects with reduced photophobia over time after treatment with ibuprofen. Subjects suffering from photophobia due to a migraine were either given a placebo or treated with 200 or 400 milligrams of ibuprofen. Approximately 650 subjects were in the study. Some subjects were given placebos, while others were given either 200 or 400 milligrams of ibuprofen.

Assay [2] concerns Subjects suffering from phonophobia due to a migraine. In words: Treatment of phonophobia due to a migraine, placebo-controlled subject study. The assay is classed as in vivo. Conditions: 200 or 400 milligrams of ibuprofen in tablet form vs placebo; at time of two hours or longer. An excerpt: FIG. 2 depicts the percentage of subjects with reduced phonophobia over time over time after treatment with ibuprofen. Subjects suffering from phonophobia due to a migraine were either given a placebo or treated with 200 or 400 milligrams of ibuprofen in tablet form.

For `CC(C)Cc1ccc(C(C)C(=O)O)cc1` (centres unmarked) [ibuprofen], the “relief of photophobia (percentage of subjects with reduced photophobia over time, FIG. 1)” value in assay [1] is recorded as “effective in relieving photophobia”. Moreover, the “relief of phonophobia (percentage of subjects with reduced phonophobia over time, FIG. 2); text prints photophobia” value in assay [2] is on record as “effective in relieving photophobia”.
